Experimental data taken from ChEMBL document CHEMBL1151464 (2008).
Converted amounts (≈) assume the structure as drawn.

Assays:
Assay type in all cases: functional
[1] = system: Acinetobacter baumannii; test: Antibacterial activity against Acinetobacter baumannii isolate 927 after 24 hrs by CLSI microdilution method
[2] = system: Acinetobacter baumannii; test: Antibacterial activity against Acinetobacter baumannii isolate 928 after 24 hrs by CLSI microdilution method
[3] = system: Acinetobacter baumannii; test: Antibacterial activity against Acinetobacter baumannii isolate 932 expressing OXA-24 and OXA-51 beta-lactamase after 24 hrs by CLSI microdilution method
[4] = system: Acinetobacter baumannii; test: Antibacterial activity against Acinetobacter baumannii isolate 931 after 24 hrs by CLSI microdilution method
[5] = system: Acinetobacter baumannii; test: Antibacterial activity against Acinetobacter baumannii isolate 920 after 24 hrs by CLSI microdilution method
[6] = system: Pseudomonas aeruginosa; test: Antibacterial activity against Pseudomonas aeruginosa isolate 319 after 24 hrs by CLSI microdilution method
[7] = system: Pseudomonas aeruginosa; test: Antibacterial activity against Pseudomonas aeruginosa isolate 323 after 24 hrs by CLSI microdilution method
[8] = system: Pseudomonas aeruginosa; test: Antibacterial activity against Pseudomonas aeruginosa isolate 326 after 24 hrs by CLSI microdilution method
[9] = system: Pseudomonas aeruginosa; test: Antibacterial activity against Pseudomonas aeruginosa isolate 327 after 24 hrs by CLSI microdilution method
[10] = system: Pseudomonas aeruginosa; test: Antibacterial activity against Pseudomonas aeruginosa isolate 328 after 24 hrs by CLSI microdilution method
[11] = system: Pseudomonas aeruginosa; test: Antibacterial activity against Pseudomonas aeruginosa isolate 330 after 24 hrs by CLSI microdilution method
[12] = system: Pseudomonas aeruginosa; test: Antibacterial activity against Pseudomonas aeruginosa isolate 331 after 24 hrs by CLSI microdilution method
[13] = system: Pseudomonas aeruginosa; test: Antibacterial activity against Pseudomonas aeruginosa isolate 334 after 24 hrs by CLSI microdilution method
[14] = system: Pseudomonas aeruginosa; test: Antibacterial activity against Pseudomonas aeruginosa isolate 337 after 24 hrs by CLSI microdilution method
[15] = system: Pseudomonas aeruginosa; test: Antibacterial activity against Pseudomonas aeruginosa isolate 338 after 24 hrs by CLSI microdilution method
[16] = system: Pseudomonas aeruginosa; test: Antibacterial activity against Pseudomonas aeruginosa isolate 344 after 24 hrs by CLSI microdilution method
[17] = system: Pseudomonas aeruginosa; test: Antibacterial activity against Pseudomonas aeruginosa isolate 348 after 24 hrs by CLSI microdilution method
[18] = system: Pseudomonas aeruginosa; test: Antibacterial activity against Pseudomonas aeruginosa isolate 353 after 24 hrs by CLSI microdilution method
[19] = system: Pseudomonas aeruginosa; test: Antibacterial activity against Pseudomonas aeruginosa isolate 356 after 24 hrs by CLSI microdilution method
[20] = system: Pseudomonas aeruginosa; test: Antibacterial activity against Pseudomonas aeruginosa isolate 357 after 24 hrs by CLSI microdilution method
[21] = system: Pseudomonas aeruginosa; test: Antibacterial activity against Pseudomonas aeruginosa isolate 358 after 24 hrs by CLSI microdilution method
[22] = system: Pseudomonas aeruginosa; test: Antibacterial activity against Pseudomonas aeruginosa isolate 359 after 24 hrs by CLSI microdilution method
[23] = system: Pseudomonas aeruginosa; test: Antibacterial activity against Pseudomonas aeruginosa isolate 360 after 24 hrs by CLSI microdilution method
[24] = system: Pseudomonas aeruginosa; test: Antibacterial activity against Pseudomonas aeruginosa isolate 365 after 24 hrs by CLSI microdilution method
[25] = system: Pseudomonas aeruginosa; test: Antibacterial activity against Pseudomonas aeruginosa isolate 368 after 24 hrs by CLSI microdilution method
[26] = system: Pseudomonas aeruginosa; test: Antibacterial activity against Pseudomonas aeruginosa isolate 369 after 24 hrs by CLSI microdilution method
[27] = system: Pseudomonas aeruginosa; test: Antibacterial activity against Pseudomonas aeruginosa isolate 376 after 24 hrs by CLSI microdilution method
[28] = system: Pseudomonas aeruginosa; test: Antibacterial activity against Pseudomonas aeruginosa isolate 379 expressing VIM2 beta-lactamase after 24 hrs by CLSI microdilution method
[29] = system: Acinetobacter baumannii; test: Antibacterial activity against Acinetobacter baumannii isolate 882 after 24 hrs by CLSI microdilution method
[30] = system: Acinetobacter baumannii; test: Antibacterial activity against Acinetobacter baumannii isolate 885 after 24 hrs by CLSI microdilution method
[31] = system: Acinetobacter baumannii; test: Antibacterial activity against Acinetobacter baumannii isolate 894 after 24 hrs by CLSI microdilution method
[32] = system: Acinetobacter baumannii; test: Antibacterial activity against Acinetobacter baumannii isolate 896 after 24 hrs by CLSI microdilution method
[33] = system: Acinetobacter baumannii; test: Antibacterial activity against Acinetobacter baumannii isolate 905 after 24 hrs by CLSI microdilution method
[34] = system: Acinetobacter baumannii; test: Antibacterial activity against Acinetobacter baumannii isolate 908 after 24 hrs by CLSI microdilution method
[35] = system: Acinetobacter baumannii; test: Antibacterial activity against Acinetobacter baumannii isolate 909 after 24 hrs by CLSI microdilution method
[36] = system: Acinetobacter baumannii; test: Antibacterial activity against Acinetobacter baumannii isolate 910 after 24 hrs by CLSI microdilution method
[37] = system: Acinetobacter baumannii; test: Antibacterial activity against Acinetobacter baumannii isolate 912 after 24 hrs by CLSI microdilution method
[38] = system: Acinetobacter baumannii; test: Antibacterial activity against Acinetobacter baumannii isolate 913 after 24 hrs by CLSI microdilution method
[39] = system: Acinetobacter baumannii; test: Antibacterial activity against Acinetobacter baumannii isolate 915 after 24 hrs by CLSI microdilution method
[40] = system: Acinetobacter baumannii; test: Antibacterial activity against Acinetobacter baumannii isolate 916 after 24 hrs by CLSI microdilution method
[41] = system: Acinetobacter baumannii; test: Antibacterial activity against Acinetobacter baumannii isolate 919 after 24 hrs by CLSI microdilution method
[42] = system: Acinetobacter baumannii; test: Antibacterial activity against Acinetobacter baumannii isolate 926 after 24 hrs by CLSI microdilution method
[43] = system: Acinetobacter baumannii; test: Antibacterial activity against Acinetobacter baumannii isolate 891 after 24 hrs by CLSI microdilution method; conditions: isolate 891, 24 h

## COLISTIN
[1]
  MIC: 2 µg/mL
[2]
  MIC: 1 µg/mL
[3]
  MIC: 0.5 µg/mL
[4]
  MIC: 4 µg/mL
[5]
  MIC: 8 µg/mL
[6]
  MIC: 2 µg/mL
[7]
  MIC: 0.25 µg/mL
[8]
  MIC: 1 µg/mL
[9]
  MIC: 2 µg/mL
[10]
  MIC: 2 µg/mL
[11]
  MIC: 1 µg/mL
[12]
  MIC: 0.5 µg/mL
[13]
  MIC: 1 µg/mL
[14]
  MIC: 1 µg/mL
[15]
  MIC: 1 µg/mL
[16]
  MIC: 0.5 µg/mL
[17]
  MIC: 1 µg/mL
[18]
  MIC: 0.25 µg/mL
[19]
  MIC: 1 µg/mL
[20]
  MIC: 2 µg/mL
[21]
  MIC: 1 µg/mL
[22]
  MIC: 0.5 µg/mL
[23]
  MIC: 1 µg/mL
[24]
  MIC: 2 µg/mL
[25]
  MIC: 2 µg/mL
[26]
  MIC: 2 µg/mL
[27]
  MIC: 0.25 µg/mL
[28]
  MIC: 1 µg/mL
[29]
  MIC: 1 µg/mL
[30]
  MIC: 2 µg/mL
[31]
  MIC: 1 µg/mL
[32]
  MIC: 2 µg/mL
[33]
  MIC: 4 µg/mL
[34]
  MIC: 0.5 µg/mL
[35]
  MIC: 1 µg/mL
[36]
  MIC: 0.25 µg/mL
[37]
  MIC: 0.5 µg/mL
[38]
  MIC: 0.25 µg/mL
[39]
  MIC: 1 µg/mL
[40]
  MIC: 0.12 µg/mL
[41]
  MIC: 0.5 µg/mL
[42]
  MIC: 2 µg/mL

## C[C@@H](O)[C@H]1C(=O)N2C(C(=O)O)=C(S[C@@H]3CN[C@H](C(=O)N(C)C)C3)[C@H](C)[C@H]12 [MEROPENEM]
[1]; isolate 927, 24 h
  MIC: 0.12 µg/mL (≈ 0.313 µM)
[2]; isolate 928, 24 h
  MIC: 2 µg/mL (≈ 5.22 µM)
[3]; isolate 932, 24 h
  MIC: 256 µg/mL (≈ 668 µM)
[4]; isolate 931, 24 h
  MIC: 2 µg/mL (≈ 5.22 µM)
[5]; isolate 920, 24 h
  MIC: 1 µg/mL (≈ 2.61 µM)
[6]; isolate 319, 24 h
  MIC: 2 µg/mL (≈ 5.22 µM)
[7]; isolate 323, 24 h
  MIC: 1 µg/mL (≈ 2.61 µM)
[8]; isolate 326, 24 h
  MIC: 16 µg/mL (≈ 41.7 µM)
[9]; isolate 327, 24 h
  MIC: 2 µg/mL (≈ 5.22 µM)
[10]; isolate 328, 24 h
  MIC: 2 µg/mL (≈ 5.22 µM)
[11]; isolate 330, 24 h
  MIC: 0.5 µg/mL (≈ 1.3 µM)
[12]; isolate 331, 24 h
  MIC: 0.12 µg/mL (≈ 0.313 µM)
[13]; isolate 334, 24 h
  MIC: 1 µg/mL (≈ 2.61 µM)
[14]; isolate 337, 24 h
  MIC: 1 µg/mL (≈ 2.61 µM)
[15]; isolate 338, 24 h
  MIC: 1 µg/mL (≈ 2.61 µM)
[16]; isolate 344, 24 h
  MIC: 0.5 µg/mL (≈ 1.3 µM)
[17]; isolate 348, 24 h
  MIC: 0.25 µg/mL (≈ 0.652 µM)
[18]; isolate 353, 24 h
  MIC: 2 µg/mL (≈ 5.22 µM)
[19]; isolate 356, 24 h
  MIC: 2 µg/mL (≈ 5.22 µM)
[20]; isolate 357, 24 h
  MIC: 0.5 µg/mL (≈ 1.3 µM)
[21]; isolate 358, 24 h
  MIC: 16 µg/mL (≈ 41.7 µM)
[22]; isolate 359, 24 h
  MIC: 0.12 µg/mL (≈ 0.313 µM)
[23]; isolate 360, 24 h
  MIC: 0.25 µg/mL (≈ 0.652 µM)
[24]; isolate 365, 24 h
  MIC: 1 µg/mL (≈ 2.61 µM)
[25]; isolate 368, 24 h
  MIC: 0.25 µg/mL (≈ 0.652 µM)
[26]; isolate 369, 24 h
  MIC: 2 µg/mL (≈ 5.22 µM)
[27]; isolate 376, 24 h
  MIC: 16 µg/mL (≈ 41.7 µM)
[28]; isolate 379, 24 h
  MIC: 256 µg/mL (≈ 668 µM)
[29]; isolate 882, 24 h
  MIC: 1 µg/mL (≈ 2.61 µM)
[30]; isolate 885, 24 h
  MIC: 8 µg/mL (≈ 20.9 µM)
[43]
  MIC: 4 µg/mL (≈ 10.4 µM)
[31]; isolate 894, 24 h
  MIC: 2 µg/mL (≈ 5.22 µM)
[32]; isolate 896, 24 h
  MIC: 2 µg/mL (≈ 5.22 µM)
[33]; isolate 905, 24 h
  MIC: 0.5 µg/mL (≈ 1.3 µM)
[34]; isolate 908, 24 h
  MIC: 2 µg/mL (≈ 5.22 µM)
[35]; isolate 909, 24 h
  MIC: 1 µg/mL (≈ 2.61 µM)
[36]; isolate 910, 24 h
  MIC: 4 µg/mL (≈ 10.4 µM)
[37]; isolate 912, 24 h
  MIC: 4 µg/mL (≈ 10.4 µM)
[38]; isolate 913, 24 h
  MIC: 0.25 µg/mL (≈ 0.652 µM)
[39]; isolate 915, 24 h
  MIC: 0.5 µg/mL (≈ 1.3 µM)
[40]; isolate 916, 24 h
  MIC: 8 µg/mL (≈ 20.9 µM)
[41]; isolate 919, 24 h
  MIC: 1 µg/mL (≈ 2.61 µM)
[42]; isolate 926, 24 h
  MIC: 32 µg/mL (≈ 83.4 µM)
